Data reported in patent US20050064485A1, “Multiplex binding and activity assays” (priority 2003, published 2005).

Legend:
[1] = target: T1, Epidermal Growth Factor Receptor (EGFR) Tyrosine Kinase (Homo sapiens, UniProt P00533); experiment: EGFR kinase multiplex FP/TR-RET library screen and follow-up titration; assay type: biochemical; conditions: two-fold dilution series
T1 construct: purchased PanVera, Madison Wis; P2628

[2] = Precipitation of poorly correlating compounds in the EGFR kinase assay; assay type: physicochemical; conditions: EGFR kinase assay conditions
[3] = target: PTK labeled tracer F-ADE(pY)LIPQQS; experiment: FP direct binding, antibody titrated (10 nM to 9.8 pM) against 1 nM tracer

T1 sequence (P00533 25-1210, species assumed): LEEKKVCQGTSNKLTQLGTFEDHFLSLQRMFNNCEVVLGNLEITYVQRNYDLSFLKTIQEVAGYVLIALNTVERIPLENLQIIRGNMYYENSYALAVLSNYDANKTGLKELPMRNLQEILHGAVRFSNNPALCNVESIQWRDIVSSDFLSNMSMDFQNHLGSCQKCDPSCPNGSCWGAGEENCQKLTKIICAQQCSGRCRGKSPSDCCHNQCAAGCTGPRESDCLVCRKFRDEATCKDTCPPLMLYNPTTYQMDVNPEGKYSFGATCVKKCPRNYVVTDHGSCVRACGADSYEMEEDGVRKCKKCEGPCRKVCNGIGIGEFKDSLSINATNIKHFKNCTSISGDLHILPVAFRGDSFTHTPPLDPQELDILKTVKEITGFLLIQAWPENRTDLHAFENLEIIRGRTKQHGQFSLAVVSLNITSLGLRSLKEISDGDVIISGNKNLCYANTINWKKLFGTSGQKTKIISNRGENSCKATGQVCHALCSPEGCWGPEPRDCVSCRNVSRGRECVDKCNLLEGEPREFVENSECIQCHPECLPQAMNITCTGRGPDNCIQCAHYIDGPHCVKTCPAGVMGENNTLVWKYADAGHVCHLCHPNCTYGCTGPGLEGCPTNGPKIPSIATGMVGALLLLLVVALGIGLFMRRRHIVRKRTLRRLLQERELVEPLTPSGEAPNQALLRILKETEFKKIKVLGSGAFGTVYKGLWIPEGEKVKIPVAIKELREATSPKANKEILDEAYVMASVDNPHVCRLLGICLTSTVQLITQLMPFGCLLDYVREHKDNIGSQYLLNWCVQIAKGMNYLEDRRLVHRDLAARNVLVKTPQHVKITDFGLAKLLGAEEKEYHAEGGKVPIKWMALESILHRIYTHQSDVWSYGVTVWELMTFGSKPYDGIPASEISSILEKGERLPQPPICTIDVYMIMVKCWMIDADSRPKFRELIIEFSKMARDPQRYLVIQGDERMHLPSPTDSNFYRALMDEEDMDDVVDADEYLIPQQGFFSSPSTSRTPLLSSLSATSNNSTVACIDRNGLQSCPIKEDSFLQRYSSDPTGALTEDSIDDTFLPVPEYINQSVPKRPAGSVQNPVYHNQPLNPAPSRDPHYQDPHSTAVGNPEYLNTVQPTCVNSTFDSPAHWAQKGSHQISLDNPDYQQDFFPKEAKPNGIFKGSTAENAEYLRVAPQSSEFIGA

Row | Compound | inhibitor on re-assay [1] | precipitation in assay [2] | also measured
1 | Oc1ccccc1O [Pyrocatechol] | neither was seen to be an inhibitor | – | –
2 | CC(C)[C@@]1(NC(=O)[C@@H]2C=C3c4cccc5[nH]cc(c45)C[C@H]3N(C)C2)O[C@@]2(O)[C@@H]3CCCN3C(=O)[C@H](Cc3ccccc3)N2C1=O [Ergocristine] | – | precipitate | –
3 | NC(=O)c1cc(N2CC2)c([N+](=O)[O-])cc1[N+](=O)[O-] [CB-1954, CB 1954] | neither was seen to be an inhibitor | – | –
4 | O=C1Nc2ccc(I)cc2/C1=C/c1cc(Br)c(O)c(Br)c1 [GW5074] | – | precipitate | –
5 | Tb-chelate labeled PY72 (anti-phosphotyrosine) IgG antibody | – | – | EC50 [3]: 1 nM
